Assays:
Assay in all cases: ASTM D4445-10 fungal growth on dip-treated Radiata pine specimens
Assay type in all cases: cell-based
Details in all cases: rating 0 (No Growth) to 5 (Complete Growth), one month, 28° C.
[1] = tested on: Aureobasidium pullulans (ATCC #9348)
Experimental: (§1) Radiata pine lumber was machined to specimens with size of 7 mm by 20 mm in cross section and 70 mm long. Solutions prepared as described above were used to treat the machined Radiata pine specimens. The treatment was carried out in a 600 mL beaker. Two unused test pieces were placed on the bottom of the beaker, and the specimens, four in a layer, were placed on the previous layers until all the treatment replicates were included. The specimens were held down with a finger bearing down on a watch glass and submerged in treating solution for 15 seconds. After 15 seconds, the beaker was drained but with specimens still held down, and then was tightly covered with a piece of plastic sheet to prevent drying and was stored overnight. Similarly, untreated control specimens were treated with water.
(§2) One day after treatment, duplicate wood specimens from the same treatment group were tested according to ASTM D4445-10 methodology. The wood specimens were checked for inhibition against sapstain fungi and molds Trichoderma pseudokoningii (ATCC #26801), Aureobasidium pullulans (ATCC #9348), and a mixture of Aspergillus niger (ATCC #6275) and Penicillium funiculosum (ATCC #11797). This method is described below:
(§3) (1) Placed duplicate wood specimens on top of polyester mesh and laid on a stack of four (4) filter paper squares (approximately 2 inches by 2.5 inches) presoaked in 5 mL sterile DI water.
(§4) (2) Prepared fungal mixture from freshly grown slants of each test organism.
(§5) (3) Added 2 mL of DI water and 0.1% Tween 20 to the slant and inverted to mix.
(§6) (4) Poured the concentrate into a total volume of 16 mL.
(§7) (5) Enumerated the stock via hemocytometer and adjusted to […] with additional DI water.
(§8) (6) Inoculated wood specimens via applying 0.25 mL of one of the three separate fungal suspensions to the top of the wood and distributing evenly on the surface with an L-spreader.
(§9) (7) Placed inoculated wood specimens in a humidity chamber for one month at 95% or larger relative humidity and 28° C.
(§10) (8) Rated wood specimens with a rating from “0” (No Growth) to “5” (Complete Growth).
as §1, with “treat” for “treat the”
as §2, with “D4445-10(2019)” for “D4445-10”, “This method is described below:” left out

[2] = tested on: Trichoderma pseudokoningii (ATCC #26801)
Experimental: as §1, §2, §3, §4, §5, §6, §7, §8, §9, §10
as §1, with “treat” for “treat the”
as §2, with “D4445-10(2019)” for “D4445-10”, “This method is described below:” left out

[3] = tested on: mixture of Aspergillus niger (ATCC #6275) and Penicillium funiculosum (ATCC #11797)
Experimental: as §1, §2, §3, §4, §5, §6, §7, §8, §9, §10
as §1, with “treat” for “treat the”
as §2, with “D4445-10(2019)” for “D4445-10”, “This method is described below:” left out

[4] = 2400 ppm treatment solution, Example 2, eight replicates
[5] = 2400 ppm treatment solution, Example 3, ten replicates
[6] = 4800 ppm treatment solution, Example 2, eight replicates

Molecule	Average Scoring A.p. [1, 4]	Average Scoring A.p. [1, 5]	Average Scoring A.p. [1, 6]	Average Scoring T.p. [2, 4]	Average Scoring T.p. [2, 5]	Average Scoring T.p. [2, 6]	Average Scoring A.n. + P.f. [3, 4]	Average Scoring A.n. + P.f. [3, 5]	Average Scoring A.n. + P.f. [3, 6]
CCCCNC(=O)OCC#CI [IPBC, 3-iodo-2-propynyl butyl carbamate]	0.0	0	0.0	2.6	1.7	2.8	0.0	2.1	0.0
didecyl bis(hydroxyethyl) ammonium borate [DPAB]	3.3	3.6	0.8	2.5	2	2.0	5.0	2	4.9
